Experiments:
Type in all cases: binding
14-3-3ζ/ERRγ peptide = target: T1, 14-3-3ζ/ERRγ peptide (Homo sapiens, UniProt P63104); experiment: FA peptide screen, 14-3-3ζ titration to client peptide and compound: ERRγ; details: 250 μM compound, 100 nM peptide; +1 Cys
T1 construct: made in house; host or cells: NiCo21 (DE3) E. coli
Procedure: (§1) Since the hub protein 14-3-3 binds to hundreds of phosphoprotein partners, selectivity of PPI stabilization is a major challenge. The interplay of chemical reactivity, and the topology and functionality of the composite binding pocket shaped by 14-3-3 and Tau potentially provide entries towards selective stabilization. […] Here, 14-3-3ζ was titrated to a constant concentration of client peptide (100 nM) and compound (250 μM) to determine the SF250μM values for the particular 14-3-3 PPI. A variety of 14-3-3 binding proteins was represented in this client panel whereby the size and hydrophobicity of the +1 amino acid were varied. […]
(§2) chromatography (HisTrap high performance cartridges, Cytiva). […] Dialyzed protein was concentrated to ∼40 mg/mL, analyzed by Q -Tof LC/MS, and aliquots were flash -frozen for storage at −80 °C. […]
(§3) 0.1% (v/v) Tween20, 0.1% (w/v) BSA). […] Measurements were performed directly after plate preparation, using a Tecan SPARK plate reader at room temperature ( λex: 485±20 nm; λem: 535±25 nm; mirror: automatic; flashes: 30; settle time: 1 ms; gain: optimal; Z -position: calculated from well). […] All data were analyzed using GraphPad Prism (10.0.1) and fitted with a four -parameter logistic model (4PL) to determine binding affinities (dissociation constant, KD). […]
(§4) Fluorescence Anisotropy – peptide screen […]

14-3-3ζ/CFTR peptide = target: T2, 14-3-3ζ/CFTR peptide (Homo sapiens, UniProt P63104); experiment: FA peptide screen, 14-3-3ζ titration to client peptide and compound: CFTR; details: 250 μM compound, 100 nM peptide; +1 Val
T2 construct: made in house; host or cells: NiCo21 (DE3) E. coli
T2 sequence (P63104 whole entry): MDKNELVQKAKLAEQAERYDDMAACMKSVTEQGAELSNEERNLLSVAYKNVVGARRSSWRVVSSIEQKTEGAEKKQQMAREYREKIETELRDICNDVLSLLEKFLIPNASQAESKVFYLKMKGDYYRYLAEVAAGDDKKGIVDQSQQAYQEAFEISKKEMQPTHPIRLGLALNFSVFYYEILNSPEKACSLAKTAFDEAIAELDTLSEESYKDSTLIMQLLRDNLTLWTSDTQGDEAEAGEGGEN
T2 sequence (P13569 747-774 partner): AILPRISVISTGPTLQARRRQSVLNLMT
Procedure: as §1, §2, §3, §4

14-3-3/Pin1 complex = target: T3, 14-3-3/Pin1 complex (Homo sapiens, UniProt P63104); experiment: FA peptide screen, 14-3-3ζ titration to client peptide and compound: Pin1; details: 250 μM compound
T3 construct: made in house; host or cells: NiCo21 (DE3) E. coli
T3 sequence (P63104 whole entry, other chains not shown): as the sequence (P63104 whole entry) above
Procedure: as §1
chromatography (HisTrap high performance cartridges, Cytiva). […]
as §3, §4

T1 sequence (P63104 whole entry, other chains not shown): as the sequence (P63104 whole entry) above

- stabilization of 14-3-3/CFTR peptide (in words) (14-3-3ζ/CFTR peptide): minor off-target effects
- SF250μM for 14-3-3/Pin1 PPI stabilization (14-3-3/Pin1 complex; 100 nM Pin1 peptide, 14-3-3ζ titrated): 3.9
- stabilization of 14-3-3/Pin1 peptide (in words) (14-3-3/Pin1 complex; 100 nM peptide, +1 Trp): no significant stabilization
Compound: CCc1ccc(-c2nccn2-c2ccc(C=O)c(Br)c2)cc1 [Compound 18]
- stabilization of 14-3-3/ERRγ peptide (in words) (14-3-3ζ/ERRγ peptide): did not show significant stabilizing activity

Reference: paper PMC11892739, “Site-specific molecular glues for the 14-3-3/Tau pS214 protein–protein interaction via reversible covalent imine tethering” (RSC Medicinal Chemistry, 2025)
